Measured values published in BindingDB's records for doi:10.1016/j.bmc.2004.09.036 (University of Alabama At Birmingham, 2005).

Tests used:
Assay in all cases: Protease Inhibition Assay
[1] = biological target: T1, Genome polyprotein [1066-1250,R1182K]/[1394-1440,K1405R,D1408E] (dengue virus type 2, UniProt P14340+P27914, D1408E/K1405R/R1182K); settings: pH 8.5; 23 °C
T1 construct: 1066-1250; 1394-1440
Procedure: (§1) All proteases were assayed by monitoring the cleavage of peptide substrate with fluorescent reporter at room temperature with a microtiter plate spectrofluorometer. Three different concentrations of inhibitors were used for calculating Ki values. Kinetic data were measured with an excitation wavelength of 390nm and emission wavelength of 460nm. From the initial velocities of the reactions Ki values were calculated by nonlinear regression method using the program EZ-fit (Perella Scientific).

Serine protease 1 = biological target: T2, Serine protease 1 (Bos taurus, UniProt P00760); settings: pH 7.6; 23 °C
T2 sequence (P00760 whole entry): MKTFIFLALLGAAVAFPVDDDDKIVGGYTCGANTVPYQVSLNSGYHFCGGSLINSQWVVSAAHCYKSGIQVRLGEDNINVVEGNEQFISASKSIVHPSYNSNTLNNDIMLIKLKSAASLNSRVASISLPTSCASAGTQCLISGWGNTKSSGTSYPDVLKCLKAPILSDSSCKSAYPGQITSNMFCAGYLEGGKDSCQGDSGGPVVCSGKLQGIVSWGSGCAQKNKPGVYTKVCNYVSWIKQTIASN
Procedure: as §1

[2] = biological target: T3, Genome polyprotein [1424-1463]/[1502-1685] (West Nile virus, UniProt P06935); settings: pH 8.5; 23 °C
T3 construct: 1424-1463; 1502-1685
T3 sequence (P06935 whole entry) 1: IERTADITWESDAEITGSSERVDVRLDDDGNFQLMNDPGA
T3 sequence (P06935 whole entry) 2: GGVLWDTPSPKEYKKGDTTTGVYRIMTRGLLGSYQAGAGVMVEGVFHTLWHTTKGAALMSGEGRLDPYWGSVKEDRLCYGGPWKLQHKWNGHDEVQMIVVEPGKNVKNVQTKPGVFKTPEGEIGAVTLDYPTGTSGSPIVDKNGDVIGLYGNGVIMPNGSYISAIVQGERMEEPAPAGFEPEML
Procedure: as §1

T1 sequence (P14340 1394-1440, looked up, stated change not applied): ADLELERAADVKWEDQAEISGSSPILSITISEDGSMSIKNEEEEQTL
T1 sequence (P27914 1066-1250, looked up, stated change not applied): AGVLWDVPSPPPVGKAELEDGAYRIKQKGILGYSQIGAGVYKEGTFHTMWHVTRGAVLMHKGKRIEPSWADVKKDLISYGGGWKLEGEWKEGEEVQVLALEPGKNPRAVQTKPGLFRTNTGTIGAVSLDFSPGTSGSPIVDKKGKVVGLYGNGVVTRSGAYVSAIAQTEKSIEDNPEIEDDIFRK

**Q.** For `NC(N)=NN=Cc1ccc(C=NN=C(N)N)cc1` [biguanidine, 1], which Ki [1] is on record?
**A.** 44 µM

**Q.** And the Ki (Serine protease 1)?
**A.** 87 µM

**Q.** And the Ki [2]?
**A.** 35 µM

**Q.** Which Ki [1] does the source give for `N=C(N)NN=CC=NN=C(N)N` [biguanidine, 2] here?
**A.** 423 µM

**Q.** What about the Ki (Serine protease 1) of the same molecule?
**A.** 155 µM

**Q.** And the Ki [2]?
**A.** 337 µM

**Q.** Which Ki [1] does the source give for `NC(N)=NNc1ccc(NNC(N)N)cc1` [biguanidine, 3] here?
**A.** 1780 µM

**Q.** What about the Ki (Serine protease 1) of the same molecule?
**A.** 51 µM

**Q.** And the Ki [2]?
**A.** 1090 µM

**Q.** How did the Ki [1] turn out when `NC(N)=NN=C1C(=O)Nc2ccccc21` [guanidine, 4] was run?
**A.** 23 µM

**Q.** What about the Ki (Serine protease 1) of the same molecule?
**A.** 4 µM

**Q.** What about the Ki [2] of the same molecule?
**A.** 16 µM

**Q.** `Cc1ccc(C(=NN=C(N)N)P(O)O)cc1` [guanidine, 5] was tested. Which Ki [1] did it give?
**A.** 14 µM

**Q.** What about the Ki (Serine protease 1) of the same molecule?
**A.** 3.2 µM

**Q.** What about the Ki [2] of the same molecule?
**A.** 13 µM
